Assay results: PubChem BioAssay (NCI)
Several values for one entry are separate records, joined by “and”; a condition that tells them apart may be missing. Equal values may be shown once.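 Exposure lasted 48 hours, with cells grown in 96-well plates and compounds tested at five concentrations. GI50: concentration for 50% inhibition of growth. The concentration for full growth arrest is given as TGI.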

How the values were obtained:
Test in all cases: NCI anticancer screen, dose series, 48 h
[1] = system: A498 renal
[2] = system: RXF 393 renal
[3] = system: LOX IMVI melanoma
[4] = system: SF-539 CNS
[5] = system: TK-10 renal
[6] = system: CCRF-CEM leukemia
[7] = system: COLO 205 colon
[8] = system: HCT-116 colon
[9] = system: UACC-62 melanoma
[10] = system: CAKI-1 renal

Compound	TGI [1]	TGI [2]	TGI [3]	TGI [4]	TGI [5]	TGI [6]	TGI [7]	TGI [8]	TGI [9]	TGI [10]	GI50 [1]	GI50 [2]	GI50 [3]	GI50 [4]	GI50 [5]	GI50 [6]	GI50 [7]	GI50 [8]	GI50 [9]	GI50 [10]
CN=C(N)NC	> 100 µM	> 100 µM	> 100 µM	> 100 µM	> 100 µM	> 100 µM	> 100 µM	> 100 µM	> 100 µM											
CC1(C)Oc2ccccc2[N+]([O-])=C1c1ccccc1	> 100 µM	> 100 µM		> 100 µM		> 100 µM	> 100 µM	> 100 µM	> 100 µM	> 100 µM										
CCCc1n(Cc2ccc3ccccc3n2)cc[n+]1Cc1ccc2ccccc2c1	6.68 µM	14.6 µM	2.95 µM	10.4 µM	2.81 µM	6.1 µM	1.34 µM	7.05 µM	2.39 µM		1.81 µM	2.98 µM	1.07 µM	0.861 µM	1.21 µM	0.688 µM	0.319 µM	1.06 µM	0.574 µM	
C[C@@]1(O)CCC[C@H]1n1c(=O)c(C(F)F)cc2cnc(NC3CCN(S(C)(=O)=O)CC3)nc21		2.9 µM	> 100 µM	3.45 µM	> 100 µM	> 100 µM		> 100 µM	3.31 µM	> 100 µM		1.24 µM	1.28 µM	1.17 µM	1.21 µM	1.5 µM		1.05 µM	1.04 µM	3.45 µM
CC1(C)OC2COC(c3[nH]nc4c(=O)[nH]c(=O)[nH]c34)C2O1 (configuration not stated)	> 100 µM	> 100 µM	> 100 µM	> 100 µM	> 100 µM		> 100 µM	> 100 µM	> 100 µM	> 100 µM										
CN[C@H]1CC[C@]23C[C@]24CC[C@]2(C)[C@@H]([C@H](C)N(C)C)CC[C@@]2(C)[C@@H]4CC[C@H]3C1(C)C	35.4 µM		18.9 µM	26.7 µM	39.3 µM	98.8 µM	25.2 µM	24 µM	32.1 µM	45.9 µM										
COc1ccc2c(c1OC)C(C=C(c1ccccc1)c1ccccc1)CN(C)C2 (configuration not stated)	65 µM			56.6 µM	76.1 µM	56.6 µM	28.5 µM	20.7 µM	40.2 µM	45.3 µM										
CC1=CC2=C(C#N)C(=O)OC2(C)C(c2ccccc2)C1 (configuration not stated)	> 100 µM		> 100 µM	> 100 µM	> 100 µM			> 100 µM	> 100 µM											
COc1cc2ccc3c4cc(OC)c(OC(C)C)cc4c[n+](C)c3c2cc1OC		> 100 µM	> 100 µM	> 100 µM	> 100 µM	> 100 µM	36.5 µM	> 100 µM	> 100 µM	> 100 µM										
CCC(=O)Nc1ncnc2ncn(C(=O)CC)c12	> 100 µM	> 100 µM	> 100 µM		> 100 µM			> 100 µM	> 100 µM	> 100 µM										
O=C(O)CNC(=O)C1NC(C(F)(F)F)(C(F)(F)F)OC1(C(F)(F)F)C(F)(F)F (configuration not stated)	> 100 µM	> 100 µM	> 100 µM	> 100 µM	> 100 µM		> 100 µM	> 100 µM	> 100 µM	> 100 µM										
Cn1cc2ccccc2c1-c1nc(F)nc(Nc2ccc(N)cc2)n1	21.6 µM	45 µM	27 µM	35.1 µM	> 100 µM	67.5 µM		35.1 µM		45 µM										
[N-]=[N+]=NC1C2CC3CC(C2)CC1C3 (configuration not stated)	> 100 µM		> 100 µM	> 100 µM	> 100 µM	> 100 µM	> 100 µM	> 100 µM	> 100 µM	> 100 µM										
O=c1c(-c2nc3ccccc3[nH]2)cc2ccccc2n1Cc1cn(Cc2ccccc2Cl)nn1				3.66 µM	6.65 µM	> 100 µM			3.57 µM	4.74 µM				1.78 µM	2.52 µM	8.58 µM			1.73 µM	1.93 µM
CCN(CC)/[N+]([O-])=N/OCC(C)O (configuration not stated)	> 100 µM	> 100 µM	> 100 µM	> 100 µM	> 100 µM	> 100 µM		> 100 µM	> 100 µM	> 100 µM										
CNC(=S)N(C1CCCCC1)C1CCCCC1		> 100 µM	> 100 µM	> 100 µM	> 100 µM	> 100 µM	> 100 µM	> 100 µM	> 100 µM	> 100 µM										
CCCCCCC(O)C(O)CCC(O)C1CCC(CCCCC(O)CC2=CC(C)OC2=O)O1 (configuration not stated)	47.6 µM	39.7 µM	5.02 µM and 27.7 µM	> 100 µM	> 100 µM		4.36 µM and 29.7 µM	25.3 µM		41.6 µM		22.9 µM	4.48 µM	> 100 µM	22.3 µM		14.4 µM	1.28 µM		17.1 µM
Cc1ccc(-c2cc(=O)c3cc(C)c(C)c(C(=O)O)c3o2)cc1[N+](=O)[O-]		> 100 µM	> 100 µM	> 100 µM	> 100 µM	> 100 µM	> 100 µM	> 100 µM	> 100 µM	> 100 µM										
CN1CCN(c2ccc(-c3cccc(CN4CCOCC4)c3)cc2NC(=O)c2c[nH]c(=O)cc2C(F)(F)F)CC1		> 100 µM	> 100 µM	44.7 µM	> 100 µM	> 100 µM	> 100 µM	> 100 µM	> 100 µM			23.1 µM	25.1 µM	19.5 µM	68.7 µM	58.8 µM	17.8 µM	16.4 µM	60.1 µM	
N#CC(C(=O)O)C(c1c(Cl)cccc1Cl)C(C#N)C(=O)O (configuration not stated)	> 100 µM		> 100 µM	> 100 µM	> 100 µM		> 100 µM	> 100 µM	> 100 µM	> 100 µM										
C/C(=N\NS(=O)(=O)c1c(C)cc(C)cc1C)c1ccc[n+]([O-])n1	86.6 µM			27.7 µM		18.2 µM		25.7 µM	31.5 µM	18.1 µM										
